In patent publication US7538116B2, “Treatment of sexual disorders” (priority 2003, dated 2009):

Legend:
Format in all cases: in vivo, human
[1] = system: subjects from trial 134004; assay: DISF interview, long-term trial 134502 (continued or switched therapy)
Procedure: (§1) Sexual dysfunction and recovery were measured with the Derogatis Interview for Sexual Functioning (DISF/DISF-SR). This provides for a coordinated set of brief matched instruments designed to provide an estimate of the quality of an individual's current sexual functioning. The DISF is a semi-structured interview comprising 25 items and reflecting quality of sexual functioning in a multi-domain format. The DISF-SR is a matching Self-Report (SR) inventory designed to accomplish the same goal in a patient self-report mode. There are gender specific male and female versions of both the DISF and the DISF-SR. All instruments in the DISF series are designed to be interpreted at three distinct levels: Discrete Items, Functional Domains, and aggregate summary (Total Score). The Discrete Items are arranged into five primary Functional Domains of sexual functioning: (I) sexual cognition/fantasy, (II) sexual arousal, (III) sexual behavior/experience, (IV) orgasm, and (V) sexual drive/relationship. Both the DISF and the DISF-SR take approximately 12 to 15 minutes to administer. Internal consistency reliabilities for domain scores of the DISF-SR range from 0.70 to 0.77, while test-retest stability coefficients are 0.80 to 0.90 and 0.86 for the Total Score. Inter-rater reliability estimates for the DISF interview ranged from 0.84 to 0.92 for domain scores, and 0.91 for the Total. […] The DISF/DISF-SR is currently available in 10 foreign languages.
(§2) The Derogatis Interview was used, providing information on the quality of the subject's sexual functioning in quantitative terms. Only subjects who were willing to discuss their sexual functioning with the investigator were to be included. In addition, the scores from the interview, as well as demographic and medical history information, were to be used by the investigator to determine whether or not the subject reached the threshold of disorder (absent or present) for the primary criteria for the DSM-IV Sexual Disorders.
In another study (Organon's Internal reference number 134501), all subjects received gepirone ER (40 mg) after having completed a trial wherein subjects were randomized to receive either gepirone ER or placebo. DISF-SR data from the analysis of this long-term trial were analyzed. For females, data were available for 23 subjects who received gepirone in a previous trial (Organon internal reference: 134001 or 134002) previously (henceforth referred to as gepirone in this paragraph) and 23 subjects who received placebo previously (henceforth referred to as placebo in this paragraph). […] For males, data were available for 17 subjects who received gepirone and 17 subjects who received placebo. […] DISF Interview data from the analysis of another long-term trial (Organon internal reference: 134502) were analyzed. In this trial subjects from a previous trial (Organon internal reference:134004) were continued on therapy or were switched to a new drug, depending on antidepressant response.

depressed outpatients = assay: DISF-SR, combined analysis of two short-term investigations (134001 and 134002); conditions: short-term treatment (2 months), 134001 and 134002 combined
Procedure: Sexual dysfunction and recovery were measured with the Derogatis Interview for Sexual Functioning (DISF/DISF-SR). This provides for a coordinated set of brief matched instruments designed to provide an estimate of the quality of an individual's current sexual functioning. The DISF is a semi-structured interview comprising 25 items and reflecting quality of sexual functioning in a multi-domain format. The DISF-SR is a matching Self-Report (SR) inventory designed to accomplish the same goal in a patient self-report mode. There are gender specific male and female versions of both the DISF and the DISF-SR. All instruments in the DISF series are designed to be interpreted at three distinct levels: Discrete Items, Functional Domains, and aggregate summary (Total Score). The Discrete Items are arranged into five primary Functional Domains of sexual functioning: (I) sexual cognition/fantasy, (II) sexual arousal, (III) sexual behavior/experience, (IV) orgasm, and (V) sexual drive/relationship. Both the DISF and the DISF-SR take approximately 12 to 15 minutes to administer. […]
The Derogatis Interview was used, providing information on the quality of the subject's sexual functioning in quantitative terms. […]
DISF-SR data from the combined analysis of two investigations of gepirone in depressed outpatients (Organon internal reference: 134001 and 134002) were analyzed. […]

subjects with depression = assay: DISF interview, short-term investigation in depression (134004); conditions: trial 134004; for mean change from baseline in total score (DISF interview): short-term treatment
Procedure: as §1, §2
DISF interview data from the analysis of another investigation of gepirone in depression (Organon internal reference number: 134004) were analyzed. […] Upon analysis of change from baseline in total score only for each domain for females and Domains I to III for males, similar conclusions for subjects who received gepirone and fluoxetine could be drawn.

depressed patients = assay: Specific case descriptions, long-term open-label study
Excerpt: In another trial patients were enrolled in a long-term open-label study of depressed patients. […] It was observed that most of the reports were from patients in long-term therapy who had recovered from their depression weeks to months before making the reports. These reports provided incidental observations on both men and women of various ages that sexual desire had increased to a level not previously experienced by the subject and which was quite pleasing to them. It appeared that these patients were no longer depressed and now had the added benefit that sexual function, sexual relationships, and quality of life were improved beyond that experienced by patients merely recovering from depression. […] They were pursuing a dating life for the first time in years. […] They were not depressed anymore and the sexual effects continued to increase. […] They were successful and carried out a satisfying sexual relationship for the fist time since the death of their spouse. They were reported to be “giddy” over the effects of gepirone in this domain. Their quality of life was judged as much improved by the investigator.

[2] = system: subjects from trials 134001 or 134002; assay: DISF-SR, long-term trial 134501 (all subjects on gepirone ER); conditions: then gepirone ER 40 mg
Procedure: as §1, §2
In another study (Organon's Internal reference number 134501), all subjects received gepirone ER (40 mg) after having completed a trial wherein subjects were randomized to receive either gepirone ER or placebo. DISF-SR data from the analysis of this long-term trial were analyzed. For females, data were available for 23 subjects who received gepirone in a previous trial (Organon internal reference: 134001 or 134002) previously (henceforth referred to as gepirone in this paragraph) and 23 subjects who received placebo previously (henceforth referred to as placebo in this paragraph). […] DISF Interview data from the analysis of another long-term trial (Organon internal reference: 134502) were analyzed. […]

[3] = system: subjects in remission from depression; assay: DISF total score, longer-term trial 28709 (randomized after remission); conditions: for mean change from baseline in total score (DISF): gepirone HCl ER 40 mg, randomized after remission
Procedure: as §1
as §2, with “Disorders. […]” for “Disorders.”

[4] = males, same treatment throughout short-term (134004) and long-term (134502) trials

CC1(C)CC(=O)N(CCCCN2CCN(c3ncccn3)CC2)C(=O)C1 [gepirone, 4,4-dimethyl-1-[4-[4-(2-pyrimidinyl)-1-piperazinyl]butyl]-2,6-piperidinedione]
mean change from baseline in total score (DISF interview) ([1]; females, same treatment throughout short-term (134004) and long-term (134502) trials): +18.1 | mean change from baseline in total score (DISF interview) ([1]; females, switched from fluoxetine to gepirone, trial 134502): +2.3 | mean change from baseline in total score (DISF interview) ([1]; females, switched from placebo to gepirone, trial 134502): +4.2 | mean change from baseline in total score (DISF interview) [1, 4]: +5.5 | mean change from baseline in total score (DISF interview) ([1]; males, switched from fluoxetine to gepirone, trial 134502): +3.3 | mean change from baseline in total score (DISF interview) ([1]; males, switched from placebo to gepirone, trial 134502): +7.1 | mean change from baseline in total score (DISF-SR) (depressed outpatients; females): +8.0 | mean change from baseline in total score (DISF-SR) (depressed outpatients; males): +13.7 | mean change from baseline in total score (DISF interview) (subjects with depression; females): +4.3 | mean change from baseline in total score (DISF interview) (subjects with depression; males): 0 | change from baseline in total score for Domains IV (orgasm) and V (sexual drive/relationship) (subjects with depression; males): improvement in total score from baseline | quality of life judged by the investigator (case report) (depressed patients; patient): much improved | orgasms (case report) (depressed patients; person on open-label therapy, no longer depressed): more frequent and more intense | libido (case report) (depressed patients; person, on gepirone for nearly a year): libido was up | mean change from baseline in total score (DISF-SR) ([2]; females, gepirone in previous trial): +11.2 | mean change from baseline in total score (DISF-SR) ([2]; females, placebo in previous trial): +3.3 | mean change from baseline in total score (DISF-SR) ([2]; males, gepirone in previous trial): +12.3 | mean change from baseline in total score (DISF-SR) ([2]; males, placebo in previous trial): −4.4 | mean change from baseline in total score (DISF) ([3]; females): +5.2 | Domains IV (orgasm) and V (sexual drive/relationship), total score from baseline ([3]; males): improvement in total score from baseline | mean change from baseline in total score (DISF) ([3]; males): +18.7

CNCCC(Oc1ccc(C(F)(F)F)cc1)c1ccccc1 (centres unmarked) [fluoxetine]
mean change from baseline in total score (DISF interview) ([1]; females, switched from gepirone to fluoxetine, trial 134502): +0.9 | mean change from baseline in total score (DISF interview) [1, 4]: −1.2 | mean change from baseline in total score (DISF interview) ([1]; males, switched from gepirone to fluoxetine, trial 134502): −5.8 | mean change from baseline in total score (DISF interview) (subjects with depression; females): −3.5 | mean change from baseline in total score (DISF interview) (subjects with depression; males): −4.4
